In ChEMBL document CHEMBL1150812, “New taxane analogues from the needles of Taxus canadensis” (J Nat Prod, 2001):

Test system: MCF7
Test: Antiproliferative activity against human MCF7 cells after 72 hrs by MTT assay
Type: functional, cell-based
Conditions: MCF7, 72 h

Row | IC50 [nM] | Structure (SMILES)
1 | 64 | CC(=O)O[C@@]12CO[C@@H]1C[C@H](O)[C@@]1(C)C(=O)C(=O)C3=C(C)[C@@H](OC(=O)[C@H](O)[C@@H](NC(=O)c4ccccc4)c4ccccc4)C[C@@](O)([C@@H](OC(=O)c4ccccc4)[C@H]21)C3(C)C
2 | 10 | CC(=O)O[C@H]1C[C@H]2OC[C@@]2(OC(C)=O)[C@H]2[C@H](OC(=O)c3ccccc3)[C@]3(O)C[C@H](OC(=O)[C@H](O)[C@@H](NC(=O)c4ccccc4)c4ccccc4)C(C)=C([C@@H](O)C(=O)[C@]12C)C3(C)C
3 | 80 | C/C=C(\C)C(=O)N[C@@H](c1ccccc1)[C@@H](O)C(=O)O[C@H]1C[C@@]2(O)[C@@H](OC(=O)c3ccccc3)[C@@H]3[C@]4(OC(C)=O)CO[C@@H]4C[C@@H](O)[C@@]3(C)C(=O)C(=O)C(=C1C)C2(C)C

Row | Structure (SMILES) | IC50 [nM]
4 | C/C=C(\C)C(=O)N[C@@H](c1ccccc1)[C@@H](O)C(=O)O[C@H]1C[C@@]2(O)[C@@H](OC(=O)c3ccccc3)[C@@H]3[C@]4(OC(C)=O)CO[C@@H]4C[C@H](O)[C@@]3(C)C(=O)[C@H](OC(C)=O)C(=C1C)C2(C)C [CEPHALOMANNINE] | 6
